How the values were obtained:
Assay type in all cases: cell-based, human
[1] = test system: MDA-MB-468 cells; assay: Cell death by trypan blue exclusion; details: 10 μM with bortezomib 1, 10, 100 nM, 20 hours
Protocol: Trypan blue exclusion and propidium iodide staining were used to quantify general cell death and the presence of apoptotic cell death was confirmed by immunoblot. The percentage of dead cells in a given population was determined by quantifying the number of trypan blue positive (dead) cells and dividing by the total number of trypan blue positive and negative cells.

[2] = test system: MDA-MB-468 (GFP-LC3), MDA-MB-468 and T47D breast adenocarcinoma cells; assay: Autophagy markers (GFP-LC3II, GFP-LC3 punctae, endogenous LC3II); details: 10 μM, ~16 hours
Protocol: FIG. 56A is an immunoblot illustrating MDA-MB-468 breast adenocarcinoma cells stably transfected with GFP-LC3 (green fluorescent protein tagged light chain 3, an autophagy marker) treated for ˜16 hours with 10 μM IPAG or 10 μM 1-3 JMS-51-58. The appearance of GFP-LC3II was an indication of autophagosome formation. FIG. 56B is an image illustrating formation of autophagosomes (GFP-LC3 punctae) in MDA468 (GFP-LC3) treated with 10 μM JMS-51-58 as in FIG. 56A. The arrow points to an example of GFP-LC3-positive autophagosomes. The white bar at the bottom of the image indicates 100 μm. FIG. 56C is an image of an immunoblot illustrating the appearance of endogenous LC3II, a marker of autophagosome formation, in MDA-MB-468 breast adenocarcinoma cells treated for 16 hours with 10 μM of JMS-51-58. FIG. 56D is an image of an immunoblot illustrating the appearance of endogenous LC3II, a marker of autophagosome formation, in T47D breast adenocarcinoma cells treated for 16 hours with 10 μM JMS-51-58.

[3] = test system: MDA-MB-468 and T47D breast adenocarcinoma cells; assay: Translational arrest immunoblot (P-S6K, P-4E-BP1); details: 10 μM, 16 hours
Protocol: FIG. 57A is an image of an immunoblot illustrating MDA-MB-468 breast adenocarcinoma cells treated for 16 hours with 10 μM of JMS-51-58. FIG. 57B is an image of an immunoblot illustrating T47D breast adenocarcinoma cells treated for 16 hours with 10 μM of JMS-51-58. The levels of phosphothreonine 389-p70S6Kinase (P-S6K) and phosphoserine 65-4E-BP1 (P-4E-BP1) were evaluated by immunoblot. Decreased levels of both phosphoprotein levels indicated diminished protein synthesis.

[4] = test system: MDA-MB-468 and T47D breast adenocarcinoma cells; assay: ER stress response immunoblot (P-p38MAPK, GRP78/BiP); details: 10 μM, 16 hours
Protocol: FIG. 58A is an image of an immunoblot of MDA-MB-468 breast adenocarcinoma cells treated for 16 hours with 10 μM JMS-51-58. FIG. 58B is an image of an immunoblot of T47D breast adenocarcinoma cells treated for 16 hours with 10 μM JMS-51-58. The levels of phospho-Thr 180/Tyr 182 p38MAPK (P-p38MAPK) and GRP78/BiP and were evaluated by immunoblot.

[5] = test system: MDA-MB-468 and MDA-MB-231 breast adenocarcinoma cells; assay: Poly-ubiquitylated protein immunoblot, breast adenocarcinoma cells; details: 10 μM, 16 hours, MDA-MB-468 and MDA-MB-231
Protocol: FIG. 34A is an image of an immunoblot of MDA-MB-468 breast adenocarcinoma cells treated with 10 μM Sigma1 antagonist (IPAG) for the indicated times, up to 24 hours. Total cell lysates were resolved by SDS-PAGE and immunoblotted with a poly-ubiquitin antibody P4D1. FIG. 34B is an image of an immunoblot of HepG2 hepatocellular carcinoma cells treated for 20 hours with 10 μM of indicated Sigma1 ligands.
FIG. 59, comprising FIGS. 59A-59B, illustrates the finding that the novel Sigma1 ligand JMS-51-58 modulated the ubiquitin proteasome system. FIG. 59A is an image of an immunoblot evaluating the levels of poly-ubiquitylated proteins of MDA-MB-468 breast adenocarcinoma treated for 16 hours with 10 μM of JMS-51-58. FIG. 59B is an image of an immunoblot evaluating the levels of poly-ubiquitylated proteins of MDA-MB-231 breast adenocarcinoma cells treated for 16 hours with 10 μM of JMS-51-58. The levels of poly-ubiquitylated proteins were evaluated by immunoblot.

[6] = test system: MDA-MB-468, T47D, MDA-MB-231 and PC3 cells; assay: Cell proliferation by Alamar blue assay, tumor cell lines; details: four drug concentrations, 40-70 hours of treatment
Protocol: In vitro cell proliferation was quantified by Alamar blue assay. The anti-proliferative effects of four drug concentrations of novel Sigma1 small molecule ligand JMS-51-2nd-58 were quantified after 40-70 hours of treatment. Data are representative of an experiment formed in triplicate for each cell line. FIG. 60A is a graph illustrating cell death in MDA-MB-468 breast adenocarcinoma cell cultures. FIG. 60B is a graph illustrating cell death in T47D breast adenocarcinoma cell cultures. FIG. 60C is a graph illustrating cell death in MDA-MB-231 breast adenocarcinoma cell cultures. FIG. 60D is a graph illustrating cell death in PC3 prostate adenocarcinoma cell cultures.

[7] = test system: MDA-MB-231 breast adenocarcinoma cells; assay: Alamar blue proliferation assay with bortezomib; details: ~70 hours
Protocol: FIG. 61, comprising FIGS. 61A-61B, is a set of graphs illustrating the finding that the novel Sigma1 ligand JMS-51-58 potentiated proteasome inhibitor mediated inhibition of tumor cell proliferation. In vitro cell proliferation was quantified by Alamar blue assay. The anti-proliferative effects of four drug concentrations of novel Sigma1 small molecule ligand JMS-51-58, were quantified after ˜70 hours of treatment of MDA-MB-231 breast adenocarcinoma cell cultures. […] Note the shift to the left of the dose-response curve (broken line). Data are representative of an experiment performed in triplicate.

[8] = test system: MDA-MB-231 and PC3 cells; assay: In vitro cell adhesion by Alamar blue assay; details: 16 hours in the presence of drug
Protocol: In vitro cell adhesion was quantified by Alamar blue assay. MDA-MB-231 and PC3 cells were detached with 0.25% trypsin+2 mM EDTA and reseeded onto 96 well plates. At the time of cell seeding, IPAG (Sigma1 putative antagonist) was added at the indicated doses to wells containing adenocarcinoma cells. The suspended cells were allowed to sediment and adhere for 16 hours in the presence of drug. Subsequently, the culture medium was removed by aspiration, each well washed once with 0.2 ml PBS (without calcium and magnesium), and Alamar blue assay was performed to quantify the number of live cells adhered to the surface of each well. FIG. 63A is a graph illustrating cell adherence in MDA-MB-231 breast adenocarcinoma cells. FIG. 63B is a graph illustrating cell adherence in PC3 prostate adenocarcinoma cells. The same procedure was performed using the indicated concentrations of JMS-51-58. FIG. 63C is a graph illustrating cell adherence in MDA-MB-231 breast adenocarcinoma cells. FIG. 63D is a graph illustrating cell adherence in PC3 prostate adenocarcinoma cells. Standard deviation bars are shown.

Compound: N=C(NCCCOc1ccc(F)cc1)Nc1ccc(I)cc1 [JMS-51-58, 1-(3-(4-fluorophenoxy)propyl)-3-(4-iodophenyl)guanidine]
- potentiation of proteasome inhibitor (bortezomib) mediated cell death [1]: potentiated proteasome inhibitor mediated tumor cell death
- induction of autophagy [2]: induced autophagy
- translational arrest (decreased P-S6K and P-4E-BP1) [3]: mediated translational arrest
- ER stress response [4]: mediated ER stress response
- levels of poly-ubiquitylated proteins [5]: increased ubiquitylated protein levels compared to the DMSO control
- tumor cell proliferation [6]: inhibited tumor cell proliferation
- cell proliferation and rates of cell death ([7]; 3 μM): did not alter cell proliferation or rates of cell death
- potentiation of bortezomib (BTZ) inhibition of cell proliferation ([7]; sub-lethal dose (3 μM)): potentiated the cell proliferation inhibiting effects of bortezomib
- cell adhesion [8]: inhibited adhesion of metastatic breast and prostate adenocarcinoma cell lines
